In patent US20080102275A1, “Method For Coating Powders” (priority 2004, published 2008):

What was measured:
[1] = release/dissolution test of pseudoephedrine particles in distilled water, quantitative determination by UV spectrophotometry; format: physicochemical; conditions: ambient temperature, FIG. 18
[2] = release/dissolution test of BSA particles in distilled water, quantitative determination by UV spectrophotometry; format: physicochemical; conditions: ambient temperature, FIG. 19
Experimental: This time, a heat-sensitive protein, BSA (Bovine Serum Albumin), the mean diameter of which, measured by particle size determination, is 85.6 μm, is coated according to FIG. 2 of the process according to the present invention. 3 g of BSA are placed in the system for injection by CO2 and 3 g of Precirol® are placed in the autoclave. The supercritical medium conditions are 110 bar and 50° C. for a dissolution time of 30 minutes. The pressure for injection of the BSA particles is 80 bar. Once coinjection has been carried out, the coated particles are quantitatively determined by UV spectrophotometry (FIG. 19). While the crude BSA is completely dissolved in distilled water at ambient temperature after 5 minutes, the protein coated with Precirol® (BSA 1 test) for its part takes close to 30 minutes in order to be completely dissolved in distilled water at ambient temperature.

Row | Molecule | time to complete dissolution [1] [min] | time to complete dissolution [2] [min]
1 | CN[C@@H](C)[C@@H](O)c1ccccc1 [crude pseudoephedrine, pseudoephedrine] | 10 | 
2 | crude BSA: heat-sensitive protein, BSA (Bovine Serum Albumin), uncoated |  | 5
